For three compounds, EC50 results are on record in patent publication US20260337245A1, “POLYPEPTIDE OR ANALOG THEREOF AND USE THEREOF” (Shenzhen Bay Laboratory, priority 2024, published 2026).

For one test, the target named is T1, AMY3R (Homo sapiens, UniProt P30988).
T1 construct: expressed in transfected cells
T1 sequence (P30988 25-474): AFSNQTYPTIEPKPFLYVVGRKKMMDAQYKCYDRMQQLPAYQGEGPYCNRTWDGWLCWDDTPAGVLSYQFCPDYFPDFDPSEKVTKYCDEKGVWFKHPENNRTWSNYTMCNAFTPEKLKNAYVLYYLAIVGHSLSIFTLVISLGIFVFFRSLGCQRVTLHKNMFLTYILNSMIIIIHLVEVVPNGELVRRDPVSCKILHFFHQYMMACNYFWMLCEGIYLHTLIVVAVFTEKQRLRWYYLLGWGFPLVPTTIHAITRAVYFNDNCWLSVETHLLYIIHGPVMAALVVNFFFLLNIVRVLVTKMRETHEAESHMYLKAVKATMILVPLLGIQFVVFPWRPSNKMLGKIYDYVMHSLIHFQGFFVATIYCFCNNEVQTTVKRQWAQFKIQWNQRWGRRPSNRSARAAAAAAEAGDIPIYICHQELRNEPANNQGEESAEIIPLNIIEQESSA
T1 sequence (O60896 24-148 partner): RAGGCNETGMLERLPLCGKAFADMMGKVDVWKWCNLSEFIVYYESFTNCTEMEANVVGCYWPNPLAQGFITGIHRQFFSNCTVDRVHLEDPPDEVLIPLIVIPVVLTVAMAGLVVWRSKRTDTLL
Put plainly: HTRF cAMP assay, AMY3R. Conditions: HEK293/pGM-CREB-L-Luc/AMY3R pool, read-out: IC50 of receptor AMY3R. Type of test: cell-based. The text has this: (§1) 2. The polypeptide derivatives prepared in Example 1 and Example 2 of the present disclosure can bind to the target AMYR and CTR receptors on the cell membrane, activate the receptors and release cAMP. Therefore, the activity of the analyte can be determined by using an HTRF (homogeneous time-resolved fluorescence) method and using a cAMP detection kit. The specific steps were as follows:
(§2) A stable transfected cell line of HEK293/pGM-CREB-L-Luc/AMY3R pool and HEK293/pGM-CREB-L-Luc/CTR pool was constructed. The polypeptide derivatives (i.e., AMY-001 to AMY-041) prepared in Examples 1 and 2 were subjected to 5-fold serial dilution from a maximum of 1000 nM to prepare a dilution series containing 8 to 11 concentration gradients. Cagrilintide and sCT were selected as positive controls for testing, and a dilution series was prepared according to the same method for testing. The test cell lines were selected and treated with cAMP-specific trypsin for digestion, and then suspended with 3 mL of serum-free DMEM medium by pipetting, and the cells were counted. 5 μL of IBMX (prepared with serum-free DMEM medium, 0.5 mM) and test cells (5 μL/7500 cells/well) were sequentially added to a 384-well plate, incubated under the conditions of 37° C., 5% CO2 for 30 minutes, then added with cAMP-d2 (5 μL, 1×) and Anti-cAMP-Cryptate (5 μL, 1×) and placed at room temperature for 1 hour. A HTRF value was determined by a chemiluminescence microplate reader, and the results were recorded. An activation curve was plotted using GraphPad Prism software to calculate an IC50 value of each polypeptide derivative. […] The IC50 values of some polypeptides were exemplarily shown in this example, see Table 3, FIG. 2 and FIG. 3 for details.

In a further test the target is T2, CTR (Homo sapiens, UniProt P30988).
T2 construct: expressed in transfected cells
T2 sequence (P30988 25-474): T1 sequence (P30988 25-474)
In words: HTRF cAMP assay, CTR. Type of test: cell-based. Conditions: HEK293/pGM-CREB-L-Luc/CTR pool, read-out: IC50 of receptor CTR.
Source text: as §1, §2

Starred links: 1 amine or outer side, 2 acyl side, 3 side chain; linkers in the order of their positions; H or OH if unused. Positions of bridges follow the written chain, without caps; N, C: chain ends. Non-standard residues stand in square brackets, D forms with d. Residues, ends and D or L forms follow the SMILES beside them. X1 = O=C(O)CCCCCCCCCCCCCCCCCCC(=O)N[C@@H](CCCCNC(=O)COCCOCCNC(=O)COCCOCCNC(=O)CCC(=O)N(CCNC(=O)C[*:1])CCNC(=O)C[*:2])C(=O)O; Aib = CC(C)(N)C(=O)O

Turning to `CC(=O)N[C@@H](C)C(=O)N[C@@H](CO)C(=O)N[C@@H](Cc1c[nH]cn1)C(=O)N[C@@H](CC(C)C)C(=O)N[C@@H](CO)C(=O)N[C@H](C(=O)N[C@@H](C)C(=O)N[C@H](C(=O)N[C@@H](CC(C)C)C(=O)NCC(=O)N[C@H]1CSCC(=O)NCCN(C(=O)CCC(=O)NCCOCCOCC(=O)NCCOCCOCC(=O)NCCCC[C@H](NC(=O)CCCCCCCCCCCCCCCCCCC(=O)O)C(=O)O)CCNC(=O)CSC[C@@H](C(=O)N[C@@H](CC(C)C)C(=O)NC(C)(C)C(=O)N[C@@H](CC(=O)O)C(=O)N[C@@H](Cc2ccc(O)cc2)C(=O)N2CCC[C@H]2C(=O)N[C@@H](CCCNC(=N)N)C(=O)N[C@H](C(=O)N[C@@H](CC(=O)O)C(=O)N[C@H](C(=O)NCC(=O)N[C@@H](C)C(=O)NCC(=O)N[C@@H](CO)C(=O)N2CCC[C@H]2C(N)=O)C(C)C)[C@@H](C)O)NC(=O)[C@H](Cc2c[nH]cn2)NC(=O)[C@H](CC(C)C)NC(=O)[C@H](CCC(=O)O)NC(=O)[C@H](C)NC(=O)[C@H](CO)NC(=O)[C@H](CC(C)C)NC1=O)C(C)C)[C@@H](C)O` [AMY-006, Ac-ASHLSTAVLGCLSAELHCL-Aib-DYPRTDVGAGSP-NH2] (Ac-ASHLSTAVLGCLSAELHCL[Aib]DYPRTDVGAGSP-NH2; linker 11-18 via X1), the EC50 was 25.4 pM at AMY3R and 10.7 pM on CTR. In the same order, the values of `CC(=O)N[C@@H](C)C(=O)N[C@@H](CO)C(=O)N[C@@H](Cc1c[nH]cn1)C(=O)N[C@@H](CC(C)C)C(=O)N[C@@H](CO)C(=O)N[C@H](C(=O)N[C@@H](C)C(=O)N[C@H](C(=O)N[C@@H](CC(C)C)C(=O)NCC(=O)N[C@H]1CCCCNC(=O)CN(C(=O)COCCOCCNC(=O)CC[C@H](NC(=O)CCCCCCCCCCCCCCCCCCC(=O)O)C(=O)O)CC(=O)NCCCC[C@@H](C(=O)N[C@@H](CC(C)C)C(=O)NC(C)(C)C(=O)N[C@@H](CC(=O)O)C(=O)N[C@@H](Cc2ccc(O)cc2)C(=O)N2CCC[C@H]2C(=O)N[C@@H](CCC(N)=O)C(=O)N[C@H](C(=O)N[C@@H](CC(=O)O)C(=O)N[C@H](C(=O)NCC(=O)N[C@@H](C)C(=O)NCC(=O)N[C@@H](CO)C(=O)N2C[C@H](O)C[C@H]2C(N)=O)C(C)C)[C@@H](C)O)NC(=O)[C@H](Cc2c[nH]cn2)NC(=O)[C@H](CC(C)C)NC(=O)[C@H](CCC(=O)O)NC(=O)[C@H](C)NC(=O)[C@H](CO)NC(=O)[C@H](CC(C)C)NC1=O)C(C)C)[C@@H](C)O` [AMY-022, Ac-ASHLSTAVLGKLSAELHKL-Aib-DYPQTDVGAGS-Hyp-NH2] are 67.9 pM and 102 pM. For `CC[C@H](C)[C@H](NC(=O)[C@@H]1CCCN1C(=O)CNC(=O)[C@H](Cc1ccccc1)NC(=O)[C@H](CC(N)=O)NC(=O)[C@H](CC(N)=O)NC(=O)[C@H](CO)NC(=O)[C@H](CO)NC(=O)[C@H](Cc1c[nH]cn1)NC(=O)[C@H](CCCNC(=N)N)NC(=O)[C@H](CC(C)C)NC(=O)[C@H](Cc1ccccc1)NC(=O)[C@H](CCC(=O)O)NC(=O)[C@H](C)NC(=O)[C@H](CC(C)C)NC(=O)[C@H](CCCNC(=N)N)NC(=O)[C@H](CCC(N)=O)NC(=O)[C@@H](NC(=O)[C@H](C)NC(=O)[C@@H]1CSSC[C@H](NC(=O)[C@H](CCCCN)NC(=O)CC[C@H](NC(=O)CCCCCCCCCCCCCCCCCCC(=O)O)C(=O)O)C(=O)N[C@@H](CC(N)=O)C(=O)N[C@@H]([C@@H](C)O)C(=O)N[C@@H](C)C(=O)N[C@@H]([C@@H](C)O)C(=O)N1)[C@@H](C)O)C(=O)N[C@@H](CC(C)C)C(=O)N1CCC[C@H]1C(=O)N1CCC[C@H]1C(=O)N[C@H](C(=O)N[C@@H](CC(N)=O)C(=O)N[C@H](C(=O)NCC(=O)N[C@@H](CO)C(=O)N[C@@H](CC(N)=O)C(=O)N[C@H](C(=O)N1CCC[C@H]1C(N)=O)[C@@H](C)O)C(C)C)[C@@H](C)O` [Cagrilintide, reference compound], the EC50 on AMY3R was found to be 12.3 pM.
